The values that follow are results of earlier work, collected in US20110092493A1, “Dose-controlled transdermal promethazine compositions and methods of use” (priority 2008, published 2011).

The conditions of data set [1]: oral administration.
Test in data set [2]: not given
This is another data set of the same source.

The conditions of data set [3]: following intramuscular injection.
For data set [4] the following is noted: 50 mg applied to the wrist in topical pluronic lecithin organogel, 15 healthy volunteers.
Test in data set [5]: not given
The source holds these as a separate data set.

[6] abbreviates: overall, most common adverse events.
Where [7] appears, read: both 50 mg suppository treatments (generic, brand-name) vs oral syrup (50 mg).

Where a name gives a salt, the structure may show the parent alone. Read-outs that look alike come from different tables or passages of the source.

Turning to `CC(CN1c2ccccc2Sc2ccccc21)N(C)C` (centres unmarked) [promethazine], the “coefficient of variation for the area under the plasma concentration-versus-time curve (AUC)” value reads like this: (50 mg suppository) “greater than 84%”; (oral syrup (50 mg)) “greater than 84%”. Moreover, the “mean AUC from 0 to 24 hours (AUC0-24)” value runs as follows: (50 mg suppository) 168 ng·h/mL; (oral syrup (50 mg)) 268 ng·h/mL. For the same compound, in data set [1] (on average), the “fraction of dose absorbed” value was 88%. Further, the absolute bioavailability in data set [1] (limited by first-pass clearance) is listed as 25%. The “adverse event: somnolence” value in data set [2] (25 mg suppository) is reported as 5%; in data set [2] (50 mg oral), 22%; in data set [2] (50 mg suppository) it was 17%; in data set [2] (setting [6]) it was 35%. Also, the “adverse event: headache” value in data set [2] (setting [6]) is 28%. The “plasma levels associated with adverse effects” value in data set [3] is recorded as 48 ng/mL. For the same compound, the “drowsiness, % of subjects” value in data set [4] is given as 73%. Besides, in data set [4], the “sedation, % of subjects” value is given as 50%.

With `CC(CN1c2ccccc2Sc2ccccc21)N(C)C` (centres unmarked) [promethazine hydrochloride], in data set [5] (50 mg suppository treatments vs oral syrup (50 mg)), the “differences in AUC0-24” value is “no significant differences”. In data set [5] (setting [7]), the “maximum promethazine concentration compared with oral syrup” value was “lower” and the “time to maximum promethazine concentration compared with oral syrup” value is reported as “longer”.
